Assay [1] addresses ligand binding domain of the chemoreceptor ECA_RS12390 (PacP-LBD, R1, WP_011094075.1) (Pectobacterium atrosepticum, UniProt Q6D464). The assay can be described thus: ITC binding to PacP-LBD. The settings on record: 15 °C, Nb = no binding. The method, then:
(§1) Plasmids for the overexpression of the different proteins were transformed into E. coli BL21(DE3). The resulting strains were grown under continuous stirring (200 rpm) at 30 °C in 2-L Erlenmeyer flasks containing 500 mL of LB medium supplemented with 50 μg/mL kanamycin. At an OD660 of 0.5, protein expression was induced by the addition of 0.1 mM isopropyl β-D-1-thiogalactopyranoside. Growth was continued at 16 °C overnight prior to cell harvesting by centrifugation at 10,000 × g for 20 min. Cell pellets were resuspended in buffer A (Additional file 2: Table S4) and subsequently broken by French press treatment at 62.5 lb/in^2. After centrifugation at 20,000 × g for 30 min, the supernatants were loaded onto 5-mL HisTrap HP columns (Amersham Biosciences) equilibrated with buffer A, and the proteins were eluted with a linear gradient of buffer B (Additional file 2: Table S4). All proteins contain a hexa-histidine tag at the N-terminal extension (Additional file 2: Table S3) and were purified at 4 °C. The purified proteins were dialyzed overnight into the corresponding analysis buffers (Additional file 2: Table S4) for immediate analysis.
(§2) All experiments were conducted on a VP microcalorimeter (Microcal, MA) at 15 °C for PacP-LBD and at 20 °C for the remaining proteins. Proteins were dialyzed into the analysis buffers specified in Additional file 2: Table S4, placed into the sample cell and titrated with aliquots of ligand solutions (1 to 10 mM) freshly prepared in dialysis buffer. The mean enthalpies measured from the injection of the ligands into the analysis buffer were subtracted from the raw titration data prior to data analysis with the MicroCal version of ORIGIN. The data were fitted with the “One binding site model” of ORIGIN.

The target in assay [2] is LBD of chemoreceptor R3 (WP_006464688.1) (Herbaspirillum frisingense, UniProt A0ABU1PC34). The assay can be described thus: ITC binding to R3-LBD. The settings on record: 20 °C, Nb = no binding. Here is the method: as §1, §2
LBD of chemoreceptor R3 (WP_006464688.1), sequence (A0ABU1PC34 entry or part of it): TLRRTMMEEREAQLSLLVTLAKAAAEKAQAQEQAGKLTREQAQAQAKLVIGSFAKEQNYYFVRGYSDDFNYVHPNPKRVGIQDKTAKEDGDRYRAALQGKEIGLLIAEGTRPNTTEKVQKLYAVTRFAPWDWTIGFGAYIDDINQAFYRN
For assay [3], the target named is LBD of chemoreceptor R4 (WP_158281851.1) (Rivihabitans pingtungensis, UniProt A0A318KJN4). The assay can be described thus: ITC binding to R4-LBD. Details: species or system Rivicola pingtungensis. The following applies: 20 °C, Nb = no binding. The method, then: as §1, §2
LBD of chemoreceptor R4 (WP_158281851.1), sequence (A0A318KJN4 entry or part of it): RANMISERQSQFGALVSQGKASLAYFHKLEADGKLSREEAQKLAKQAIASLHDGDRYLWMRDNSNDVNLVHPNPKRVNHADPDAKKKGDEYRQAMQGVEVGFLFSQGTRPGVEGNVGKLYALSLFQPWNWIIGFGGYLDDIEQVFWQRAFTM
Assay [4] addresses LBD of chemoreceptor R7 (WP_019915375.1). The assay can be described thus: ITC binding to R7-LBD. Also on record: species or system Methyloversatilis discipulorum. The settings on record: 20 °C, Nb = no binding. Here is the method:
as §1, §2

The target of assay [5] is LBD of chemoreceptor R9 (WP_189529961.1) (Paludibacterium paludis, UniProt A0A918NWY2). The experiment in a line: ITC binding to R9-LBD. The settings on record: 20 °C, Nb = no binding. The method, then: as §1, §2
LBD of chemoreceptor R9 (WP_189529961.1), sequence (A0A918NWY2 entry or part of it): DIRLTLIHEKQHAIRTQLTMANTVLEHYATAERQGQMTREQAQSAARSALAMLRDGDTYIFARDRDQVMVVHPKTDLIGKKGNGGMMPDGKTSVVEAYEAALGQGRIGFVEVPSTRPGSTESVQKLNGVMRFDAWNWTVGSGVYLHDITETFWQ
Assay [6] relates to ECA_RS12390-LBD (PacP-LBD). The assay can be described thus: Thermal shift ligand screening of PacP-LBD. It counts as binding, Pectobacterium atrosepticum. The settings on record: thermal shift assay, Biolog arrays PM1, PM2A, PM3B, PM4A. Here is the method: Assays were carried out on a MyIQ2 Real-Time PCR instrument (Bio-Rad, Hercules, CA, USA). Ligand solutions were prepared by dissolving the array compounds in 50 µL of Milli-Q water, which, according to the manufacturer, corresponds to a concentration of 10–20 mM. Freshly purified proteins were dialyzed into analysis buffer (Additional file 2: Table S4). Compound arrays PM1, PM2A (carbon sources), PM3B (nitrogen sources), and PM4A (phosphorus and sulfur sources) from Biolog (https://www.biolog.com/) were used. The compositions of these arrays are provided in Additional file 2: Table S1. The experiments were conducted in 96-well plates, and each assay mixture contained 20 µL of the dialyzed protein (at 80–50 µM), 2 µL of 5 × SYPRO orange (Life Technologies, Eugene, Oregon, USA), and 2.5 µL of the resuspended array compound or the equivalent amount of buffer in the ligand-free control. The samples were heated from 23 to 85 °C at a scan rate of 1 °C/min. The protein unfolding curves were monitored by detecting changes in SYPRO® Orange fluorescence. The Tm values were determined from the first derivative values of the raw fluorescence data.

Assay [7] has as its system Pectobacterium atrosepticum SCRI1043. The experiment in a line: Growth experiment, sole phosphorus source. It counts as cell-based. The settings on record: PFM9 minimal medium, 5 mM ligand, 30 °C, 48 h. Here is the method:
P. atrosepticum SCRI1043 was cultured overnight in phosphate-free M9-based medium (PFM9) supplemented with 20 mM glucose as the carbon source and 500 µM inorganic phosphate as the phosphate source. Cultures were washed and then diluted to an OD600 of 0.02 in PFM9 supplemented with different PacP ligands as the sole carbon or phosphorous source at a final concentration of 5 mM. Subsequently, 200 µL aliquots of these cultures were transferred into microwell plates, which were subsequently grown at 30 °C on a Bioscreen microbiological growth analyzer (Oy Growth Curves Ab Ltd., Helsinki, Finland) for 48 h.

The subject of assay [8] is Bdellovibrio bacteriovorus. Also on record: method as in PMID 119030, PMID 500565. The settings on record: cited from earlier work.
In the next assay the test system is Bacillus subtilis. Details: method as in PMID 119030, PMID 500565. The settings on record: cited from earlier work.

LBD of chemoreceptor R7 (WP_019915375.1), sequence (as listed by the source): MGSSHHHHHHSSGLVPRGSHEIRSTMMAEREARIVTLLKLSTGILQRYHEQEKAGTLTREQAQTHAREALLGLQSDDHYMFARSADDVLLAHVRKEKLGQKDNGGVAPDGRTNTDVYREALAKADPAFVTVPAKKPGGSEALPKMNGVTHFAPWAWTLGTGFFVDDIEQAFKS
ligand binding domain of the chemoreceptor ECA_RS12390 (PacP-LBD, R1, WP_011094075.1), sequence (Q6D464 entry or part of it): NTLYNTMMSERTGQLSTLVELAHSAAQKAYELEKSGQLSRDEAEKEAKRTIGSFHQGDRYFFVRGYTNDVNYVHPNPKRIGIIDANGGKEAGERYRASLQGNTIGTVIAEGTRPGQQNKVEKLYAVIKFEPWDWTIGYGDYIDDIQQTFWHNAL

Take `O=C(O)[C@@H](O)COP(=O)(O)O` [3-phosphoglycerate]: the figures for the Kd in assay [1] and in [3] were 88 ± 5 µM and 926 ± 8 µM, respectively. Also, the KD result in assay [2], in assay [4] and in assay [5] was “Nb” each time. Besides, in [6], the “Tm change with respect to the ligand-free protein” value is given as “significant increases in Tm”. The “growth as sole phosphorus source” value in assay [7] was “permitted growth”. Further, the chemotaxis entry (in assay [8]; with Bacillus subtilis) was “weak chemotaxis” throughout.

Regarding `O=P(O)(O)OCC(O)CO` (centres unmarked) [glycerol 3-phosphate], the Kd in assay [1] was found to be 3 ± 0.2 µM; in assay [2], 33 ± 1 µM; in assay [3], 7 ± 0.2 µM. Moreover, the KD result in assay [2] is given as “bound”; in [4] it was “bound”; in [4] (listed as Glycerol 3-P), “Nb”; in assay [5], “Nb”. Further, the “Tm change with respect to the ligand-free protein” value in assay [6] is given as “significant increases in Tm”. Besides, the “growth as sole phosphorus source” value in [7] is “supported growth”. Besides, the chemotaxis entry (in assay [8]; in the assay with Bacillus subtilis) was “weak chemotaxis” throughout.

In general, Kd refers to a measure of binding affinity in units of concentration. Higher therefore signals weaker binding.
